Among the data in patent publication US8394843B2, “Substituted isoindoles as glucokinase activators” (Takeda California, Inc., priority 2006, dated 2013) are Emax and EC50 values, retold here.

For the test, the target named is T1, glucokinase (GK) (Homo sapiens, UniProt P35557).
T1 construct: I.D. No. 1 corresponds to residues 12-465 of glucokinase; made in house; host or cells: E. coli DH10b-T1r
T1 sequence (P35557 with tags, fused parts or gaps isoform P35557-2): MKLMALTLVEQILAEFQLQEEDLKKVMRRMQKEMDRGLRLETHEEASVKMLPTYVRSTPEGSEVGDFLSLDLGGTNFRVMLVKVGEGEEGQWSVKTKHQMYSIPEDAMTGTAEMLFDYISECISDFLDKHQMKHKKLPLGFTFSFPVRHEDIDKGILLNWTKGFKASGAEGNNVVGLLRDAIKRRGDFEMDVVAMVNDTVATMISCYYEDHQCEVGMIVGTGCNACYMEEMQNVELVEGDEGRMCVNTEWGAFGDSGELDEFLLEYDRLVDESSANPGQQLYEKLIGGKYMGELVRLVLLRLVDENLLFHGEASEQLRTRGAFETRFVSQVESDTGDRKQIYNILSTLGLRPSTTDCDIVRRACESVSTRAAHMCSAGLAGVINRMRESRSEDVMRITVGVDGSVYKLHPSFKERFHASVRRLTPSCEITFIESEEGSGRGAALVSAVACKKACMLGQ
Nature of the test: enzymatic glucokinase activity assay (ATP consumption, KinaseGlo luminescence). In kind it is biochemical. The following applies: 5 mM Glucose, 5 μM ATP; for Emax: calculated maximal gain in GK enzyme activity at a saturating concentration of the compound, read-out: % ACTmax; for EC50: negative log of Kact, the concentration that displays 50% of the maximal increase in GK activity, 60 min at room temperature, read-out: pKact. From the text: The activity of compounds as glucokinase activators may be assayed in vitro, in vivo or in a cell line. Provided below is an enzymatic glucokinase activity assay.
Purified glucokinase may be obtained as follows. DNA encoding residues 12-465 of the full-length sequence of the human enzyme may be amplified by PCR and cloned into the HindIII and EcoRI sites of pFLAG-CTC (Sigma). SEQ. I.D. No. 1 corresponds to residues 12-465 of glucokinase.
The expression of recombinant glucokinase protein may be carried out by transformation and growth of DH10b-T1r E. coli cells incorporating the (pFLAG-CTC) plasmid in LB media. Protein expression can be induced in this system by the addition of IPTG to the culture medium.
Recombinant protein may be isolated from cellular extracts by passage over Sepharose Q Fast Flow resin (Pharmacia). This partially purified GK extract may then be further purified by a second passage over Poros HQ10 (Applied Biosystems). The purity of GK may be determined on denaturing SDS-PAGE gel. Purified GK may then be concentrated to a final concentration of 20.0 mg/ml. After flash freezing in liquid nitrogen, the proteins can be stored at −78° C. in a buffer containing 25 mM TRIS-HCl pH 7.6, 50 mM NaCl, and 0.5 mM TCEP.
The activation properties of compounds for GK may be determined using a black 384-well-plate format under the following reaction conditions: 25 mM Hepes pH 7.2, 25 mM NaCl, 10 mM MgCl2, 0.01% Brij35, 1 mM DTT, 5 μM ATP, 5 mM Glucose 2% DMSO. The amount of ATP consumed may be determined quantitatively by addition of equal volume of luciferase reagent (luciferase+beetle luciferin—KinaseGlo Luminescent Kinase Assay kit from Promega). The luminescence intensity may be measured by using the Analyst HT from LJL Biosystems.
The assay reaction may be initiated as follows: 4 μl of substrate mixture (12.5 μM ATP and 12.5 mM Glucose) was added to each well of the plate, followed by the addition of 2 μl of activator (2 fold serial dilutions for 11 data points for each activator) containing 10% DMSO. 4 μL of 1.25 nM GK solution may be added to initiate the reaction. The reaction mixture may then be incubated at room temperature for 60 min, and quenched and developed by addition of 10 μL of luciferase reagent. Luminescence intensities of the resulting reaction mixtures may be measured after a 10 min incubation at room temperature. The luminescence intensity may be measured by using the Analyst HT from LJL Biosystems.
pKact and % ACTmax values may be calculated by non-linear curve fitting of the compound concentrations and luminescence intensities to a standard inhibition/activation equation. […] “pKact” is the negative log of the Kact value; i.e., −log10 [Kact]. % Actmax represents the calculated maximal gain in GK enzyme activity at a saturating concentration of the compound. pKact and % ACTmax values for select compounds of the present invention are given in Table 1.

Consider `N=C1c2ccccc2CN1C(CC1CCCCC1)C(=O)Nc1nccs1` (stereo not drawn) [Example 11, 3-cyclohexyl-2-(1-iminoisoindolin-2-yl)-N-(thiazol-2-yl)propanamide], for which the Emax is more than 60% and the EC50 was not above 10 µM.

As for `CC(C)CC(C(=O)Nc1nccs1)n1cc2cc(O)ccc2n1` (stereo not drawn) [Example 7, 2-(5-hydroxy-2H-indazol-2-yl)-4-methyl-N-(thiazol-2-yl)pentanamide], the Emax is more than 60% and the EC50 was not below 31.6 µM.

Turning to `Cc1c2cc(F)ccc2nn1C(CC(C)C)C(=O)Nc1nccs1` (stereo not drawn) [Example 9, 2-(5-fluoro-3-methyl-2H-indazol-2-yl)-4-methyl-N-(thiazol-2-yl)pentanamide], the Emax was 50 to 60% and the EC50 was 12.6 to 25.1 µM.

In the case of `CC(C)CC(C(=O)Nc1nccs1)n1cc2ccccc2n1` (stereo not drawn) [Example 2, 2-(2H-indazol-2-yl)-4-methyl-N-(thiazol-2-yl)pentanamide], the Emax was more than 60% and the EC50 is not below 31.6 µM.

With `CC(C)CC(C(=O)Nc1nccs1)n1cc2ccc(S(C)(=O)=O)cc2n1` (stereo not drawn) [Example 5, 4-methyl-2-(6-(methylsulfonyl)-2H-indazol-2-yl)-N-(thiazol-2-yl)pentanamide], the Emax is less than 50% and the EC50 lay in the range of 12.6 to 25.1 µM.

In the case of `COc1ccc2nn(C(CC(C)C)C(=O)Nc3nccs3)cc2c1` (stereo not drawn) [Example 6, 2-(5-methoxy-2H-indazol-2-yl)-4-methyl-N-(thiazol-2-yl)pentanamide], the Emax was 50 to 60% and the EC50 is not below 31.6 µM.

Turning to `CC(C)CC(C(=O)Nc1nccs1)N1C(=O)c2ccccc2C1=O` (stereo not drawn) [Example 13, 2-(1,3-dioxoisoindolin-2-yl)-4-methyl-N-(thiazol-2-yl)pentanamide], the Emax is more than 60% and the EC50 is not above 10 µM.

For the molecule `Cc1c2ccccc2nn1C(CC(C)C)C(=O)Nc1nccs1` (stereo not drawn) [Example 8, 4-methyl-2-(3-methyl-2H-indazol-2-yl)-N-(thiazol-2-yl)pentanamide], the Emax is less than 50% and the EC50 was not above 10 µM.

In the case of `CC(C)CC(C(=O)Nc1nccs1)n1cc2cc(F)ccc2n1` (stereo not drawn) [Example 3, 2-(5-fluoro-2H-indazol-2-yl)-4-methyl-N-(thiazol-2-yl)pentanamide], the Emax was 50 to 60% and the EC50 is not below 31.6 µM.

As for `CC(C)CC(C(=O)Nc1nccs1)n1cc2ccc([N+](=O)[O-])cc2n1` (stereo not drawn) [Example 4, 4-methyl-2-(6-nitro-2H-indazol-2-yl)-N-(thiazol-2-yl)pentanamide], the Emax is less than 50% and the EC50 was not above 10 µM.

Regarding `CC(C)CC(C(=O)Nc1ccccn1)N1C(=O)c2ccccc2C1=O` (stereo not drawn) [Example 14, 2-(1,3-dioxoisoindolin-2-yl)-4-methyl-N-(pyridin-2-yl)pentanamide], the Emax is more than 60% and the EC50 was 12.6 to 25.1 µM.

As for `N=C1c2cc(F)ccc2CN1C(CC1CCCCC1)C(=O)Nc1nccs1` (stereo not drawn) [Example 12, 3-cyclohexyl-2-(6-fluoro-1-iminoisoindolin-2-yl)-N-(thiazol-2-yl)propanamide], the Emax is more than 60% and the EC50 lay in the range of 12.6 to 25.1 µM.
